Test results: PubChem BioAssay AID248 (DTP/NCI, 2004)
“And” between values parts separate entries of the source, which are not always exact repeats. Equal entries are not always repeated. Toxic doses and inconclusive results are not listed.

Tested on: L1210 leukemia ip in BDF1 mice, survival T/C
Assay: NCI In Vivo Anticancer Drug Screen. Data for tumor model L1210 Leukemia (intraperitoneal) in B6D2F1 (BDF1) mice
Settings: higher = longer survival
In short: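 Read-out is survival time, reported as the treated-group measurement over the vehicle-control measurement.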

[1] = endpoint: mean survival time, dose: 100.0 mg/kg/injection, schedule: Q01DX009 (ip), vehicle: saline
[2] = endpoint: mean survival time, dose: 100.0 mg/kg/injection, schedule: Q04DX002 (ip), vehicle: saline
[3] = endpoint: mean survival time, dose: 200.0 mg/kg/injection, schedule: Q01DX009 (ip), vehicle: saline
[4] = endpoint: mean survival time, dose: 200.0 mg/kg/injection, schedule: Q04DX002 (ip), vehicle: saline
[5] = endpoint: mean survival time, dose: 400.0 mg/kg/injection, schedule: Q01DX009 (ip), vehicle: saline
[6] = endpoint: mean survival time, dose: 400.0 mg/kg/injection, schedule: Q04DX002 (ip), vehicle: saline
[7] = endpoint: mean survival time, dose: 100.0 mg/kg/injection, schedule: Q04DX002 (ip), vehicle: Klucel (hydroxypropylcellulose) (HPC)
[8] = endpoint: mean survival time, dose: 200.0 mg/kg/injection, schedule: Q04DX002 (ip), vehicle: Klucel (hydroxypropylcellulose) (HPC)
[9] = endpoint: mean survival time, dose: 400.0 mg/kg/injection, schedule: Q04DX002 (ip), vehicle: Klucel (hydroxypropylcellulose) (HPC)
[10] = endpoint: mean survival time, dose: 100.0 mg/kg/injection, schedule: Q01DX009 (ip), vehicle: Klucel (hydroxypropylcellulose) (HPC)
[11] = endpoint: mean survival time, dose: 200.0 mg/kg/injection, schedule: Q01DX009 (ip), vehicle: Klucel (hydroxypropylcellulose) (HPC)
[12] = endpoint: mean survival time, dose: 400.0 mg/kg/injection, schedule: Q01DX009 (ip), vehicle: Klucel (hydroxypropylcellulose) (HPC)
[13] = endpoint: mean survival time, dose: 50.0 mg/kg/injection, schedule: Q01DX001 (ip), vehicle: saline
[14] = endpoint: mean survival time, dose: 100.0 mg/kg/injection, schedule: Q01DX001 (ip), vehicle: saline
[15] = endpoint: mean survival time, dose: 100.0 mg/kg/injection, schedule: Q04DX003 (ip), vehicle: Klucel (hydroxypropylcellulose) (HPC)
[16] = endpoint: mean survival time, dose: 200.0 mg/kg/injection, schedule: Q01DX001 (ip), vehicle: saline
[17] = endpoint: mean survival time, dose: 200.0 mg/kg/injection, schedule: Q04DX003 (ip), vehicle: Klucel (hydroxypropylcellulose) (HPC)
[18] = endpoint: mean survival time, dose: 400.0 mg/kg/injection, schedule: Q01DX001 (ip), vehicle: saline
[19] = endpoint: mean survival time, dose: 400.0 mg/kg/injection, schedule: Q04DX003 (ip), vehicle: Klucel (hydroxypropylcellulose) (HPC)

COc1ccc2nc3ccccc3c(NCCNCCO)c2c1
T/C (endpoint: mean survival time, dose: 5.0 mg/kg/injection, schedule: Q01DX001 (ip), vehicle: saline): 97 % of control | T/C (endpoint: mean survival time, dose: 6.0 mg/kg/injection, schedule: Q01DX Z (ip), vehicle: carboxymethylcellulose (CMC)): 98 % of control | T/C (endpoint: mean survival time, dose: 9.0 mg/kg/injection, schedule: Q01DX Z (ip), vehicle: carboxymethylcellulose (CMC)): 92 % of control | T/C (endpoint: mean survival time, dose: 10.0 mg/kg/injection, schedule: Q01DX001 (ip), vehicle: saline): 106 % of control | T/C (endpoint: mean survival time, dose: 20.0 mg/kg/injection, schedule: Q01DX001 (ip), vehicle: saline): 101 % of control | T/C (endpoint: mean survival time, dose: 40.0 mg/kg/injection, schedule: Q01DX001 (ip), vehicle: saline): 97 % of control | T/C (endpoint: mean survival time, dose: 80.0 mg/kg/injection, schedule: Q01DX001 (ip), vehicle: saline): 92 % of control

NC(N)=S
T/C [1]: 103 % of control | T/C (endpoint: mean survival time, dose: 100.0 mg/kg/injection, schedule: Q01DX015 (oral), vehicle: saline): 97 % of control and 121 % of control | T/C [2]: 100 % of control | T/C [3]: 101 % of control | T/C (endpoint: mean survival time, dose: 200.0 mg/kg/injection, schedule: Q01DX015 (oral), vehicle: saline): 100 % of control and 121 % of control | T/C [4]: 113 % of control | T/C [5]: 103 % of control | T/C (endpoint: mean survival time, dose: 400.0 mg/kg/injection, schedule: Q01DX015 (oral), vehicle: saline): 122 % of control | T/C [6]: 95 % of control

CN1C2CCCCC1C1CCCCC2[N+]1(C)C
T/C (endpoint: mean survival time, dose: 75.0 mg/kg/injection, schedule: Q01DX001 (ip), vehicle: saline): 96 % of control

Cc1nc2c(o1)CCCC2
T/C (endpoint: mean survival time, dose: 25.0 mg/kg/injection, schedule: Q01DX009 (ip), vehicle: carboxymethylcellulose (CMC)): 94 % of control and 107 % of control | T/C (endpoint: mean survival time, dose: 50.0 mg/kg/injection, schedule: Q01DX009 (ip), vehicle: carboxymethylcellulose (CMC)): 97 % of control and 103 % of control | T/C (endpoint: mean survival time, dose: 100.0 mg/kg/injection, schedule: Q01DX009 (ip), vehicle: carboxymethylcellulose (CMC)): 94 % of control and 105 % of control | T/C (endpoint: mean survival time, dose: 100.0 mg/kg/injection, schedule: Q04DX002 (ip), vehicle: carboxymethylcellulose (CMC)): 103 % of control and 113 % of control | T/C (endpoint: mean survival time, dose: 200.0 mg/kg/injection, schedule: Q04DX002 (ip), vehicle: carboxymethylcellulose (CMC)): 98 % of control and 100 % of control | T/C (endpoint: mean survival time, dose: 400.0 mg/kg/injection, schedule: Q04DX002 (ip), vehicle: carboxymethylcellulose (CMC)): 88 % of control

OCC(O)C(O)C(O)C(O)C(SCc1ccccc1)SCc1ccccc1 (centres undefined)
T/C [7]: 98 % of control | T/C [8]: 92 % of control | T/C [9]: 92 % of control

CC1CN(C(=S)Nc2cccc3ccccc23)CC(C)O1 (centres undefined)
T/C [10]: 100 % of control | T/C [11]: 97 % of control | T/C [12]: 95 % of control

CCC(C)OP(=S)(S)OC(C)CC (centres undefined) (tested in a mixture with another compound)
T/C [2]: 96 % of control | T/C [4]: 99 % of control | T/C [6]: 96 % of control

CCCCCCCCc1c(N)nc(N)[nH]c1=O
T/C (endpoint: mean survival time, dose: 100.0 mg/kg/injection, schedule: Q01DX001 (ip), vehicle: Klucel (hydroxypropylcellulose) (HPC)): 99 % of control | T/C (endpoint: mean survival time, dose: 200.0 mg/kg/injection, schedule: Q01DX001 (ip), vehicle: Klucel (hydroxypropylcellulose) (HPC)): 92 % of control | T/C (endpoint: mean survival time, dose: 400.0 mg/kg/injection, schedule: Q01DX001 (ip), vehicle: Klucel (hydroxypropylcellulose) (HPC)): 92 % of control

N#CC(C#N)=Cc1ccc2c(c1)CCC2
T/C (endpoint: mean survival time, dose: 10.0 mg/kg/injection, schedule: Q01DX009 (ip), vehicle: saline with Tween-80): 100 % of control | T/C (endpoint: mean survival time, dose: 20.0 mg/kg/injection, schedule: Q01DX009 (ip), vehicle: saline with Tween-80): 96 % of control | T/C (endpoint: mean survival time, dose: 40.0 mg/kg/injection, schedule: Q01DX009 (ip), vehicle: saline with Tween-80): 94 % of control | T/C (endpoint: mean survival time, dose: 75.0 mg/kg/injection, schedule: Q01DX001 (ip), vehicle: other): 96 % of control

O=[N+]([O-])c1ccc(S(=O)C2CCCCC2Cl)c([N+](=O)[O-])c1 (centres undefined)
T/C [10]: 111 % of control

CC1=NN(c2ccc(S(=O)(=O)O)cc2)C(=O)/C1=C/C(C#N)C#N
T/C [13]: 105 % of control | T/C [14]: 98 % of control | T/C [15]: 92 % of control | T/C [16]: 108 % of control | T/C [17]: 105 % of control | T/C [18]: 108 % of control | T/C [19]: 94 % of control

CCCCN(C)N=Nc1n[nH]nc1C(N)=O
T/C (endpoint: mean survival time, dose: 25.0 mg/kg/injection, schedule: Q01DX Z (ip), vehicle: carboxymethylcellulose (CMC)): 118 % of control | T/C (endpoint: mean survival time, dose: 50.0 mg/kg/injection, schedule: Q01DX Z (ip), vehicle: carboxymethylcellulose (CMC)): 113 % of control | T/C (endpoint: mean survival time, dose: 250.0 mg/kg/injection, schedule: Q01DX001 (ip), vehicle: carboxymethylcellulose (CMC)): 123 % of control

Cc1ccc(C)c(NS(C)(=O)=O)c1
T/C [13]: 96 % of control | T/C [14]: 91 % of control | T/C [16]: 102 % of control | T/C [18]: 102 % of control

NC(CSS(=O)(=O)O)=NC1CC1
T/C [7]: 94 % of control | T/C [8]: 91 % of control | T/C [9]: 109 % of control

CCOC(=O)c1ccc(=O)n(C(C)C)c1
T/C [10]: 104 % of control | T/C [11]: 98 % of control | T/C [12]: 102 % of control

CCOC(=O)CC(C(=O)OCC)C(C(=O)OCC)C(=O)OCC (centres undefined)
T/C (endpoint: mean survival time, dose: 50.0 mg/kg/injection, schedule: Q01DX009 (ip), vehicle: saline with Tween-80): 111 % of control | T/C (endpoint: mean survival time, dose: 100.0 mg/kg/injection, schedule: Q01DX009 (ip), vehicle: saline with Tween-80): 101 % of control | T/C (endpoint: mean survival time, dose: 200.0 mg/kg/injection, schedule: Q01DX009 (ip), vehicle: saline with Tween-80): 101 % of control

O=c1[nH]c2nccnc2[nH]1
T/C (endpoint: mean survival time, dose: 25.0 mg/kg/injection, schedule: Q01DX009 (ip), vehicle: water): 91 % of control | T/C (endpoint: mean survival time, dose: 50.0 mg/kg/injection, schedule: Q01DX009 (ip), vehicle: water): 107 % of control | T/C (endpoint: mean survival time, dose: 200.0 mg/kg/injection, schedule: Q01DX009 (ip), vehicle: water): 96 % of control

Cc1ccnc(/C=N/NC(N)=S)c1
T/C [2]: 108 % of control | T/C [4]: 86 % of control

NC(CS/C(Cl)=C/Cl)C(=O)O (centres undefined)
T/C (endpoint: mean survival time, dose: 1.5 mg/kg/injection, schedule: Q01DX009 (ip), vehicle: saline): 101 % of control | T/C (endpoint: mean survival time, dose: 3.0 mg/kg/injection, schedule: Q01DX009 (ip), vehicle: saline): 106 % of control | T/C (endpoint: mean survival time, dose: 6.0 mg/kg/injection, schedule: Q01DX009 (ip), vehicle: saline): 104 % of control | T/C (endpoint: mean survival time, dose: 12.0 mg/kg/injection, schedule: Q01DX009 (ip), vehicle: saline): 98 % of control | T/C (endpoint: mean survival time, dose: 17.0 mg/kg/injection, schedule: Q01DX009 (ip), vehicle: saline): 101 % of control | T/C (endpoint: mean survival time, dose: 27.0 mg/kg/injection, schedule: Q01DX009 (ip), vehicle: saline): 95 % of control

CCCCCCCCCCCCCCCCCCCCCC(=O)Nc1ccn(C2OC(CO)C(O)C2O)c(=O)n1 (centres undefined)
T/C (endpoint: median survival time, dose: 25.0 mg/kg/injection, schedule: Q01DX009 (ip), vehicle: saline with Tween-80): 217 % of control | T/C (endpoint: median survival time, dose: 50.0 mg/kg/injection, schedule: Q01DX009 (ip), vehicle: saline with Tween-80): 234 % of control | T/C (endpoint: median survival time, dose: 100.0 mg/kg/injection, schedule: Q01DX009 (ip), vehicle: saline with Tween-80): 234 % of control | T/C (endpoint: median survival time, dose: 200.0 mg/kg/injection, schedule: Q01DX009 (ip), vehicle: saline with Tween-80): 382 % of control | T/C (endpoint: median survival time, dose: 400.0 mg/kg/injection, schedule: Q01DX009 (ip), vehicle: saline with Tween-80): 340 % of control

CCCOCNC(=O)c1cccnc1
T/C [14]: 103 % of control | T/C [1]: 97 % of control | T/C [16]: 95 % of control | T/C [3]: 94 % of control | T/C [18]: 105 % of control | T/C [5]: 103 % of control

CCC(=O)c1ccc(N2CCOCC2)cc1
T/C (endpoint: mean survival time, dose: 50.0 mg/kg/injection, schedule: Q04DX003 (ip), vehicle: Klucel (hydroxypropylcellulose) (HPC)): 97 % of control | T/C (endpoint: mean survival time, dose: 100.0 mg/kg/injection, schedule: Q01DX001 (ip), vehicle: other): 107 % of control | T/C [15]: 101 % of control | T/C (endpoint: mean survival time, dose: 200.0 mg/kg/injection, schedule: Q01DX001 (ip), vehicle: other): 107 % of control | T/C [17]: 108 % of control | T/C (endpoint: mean survival time, dose: 400.0 mg/kg/injection, schedule: Q01DX001 (ip), vehicle: other): 107 % of control

COc1ccc(OC)c(NC(=O)Oc2ccc(Cl)cc2C)c1
T/C [15]: 97 % of control | T/C [17]: 98 % of control | T/C [19]: 97 % of control
